Measurements reported in patent publication US20060287395A1, “Pharmaceutical composition for the therapy of lower urinary tract symptoms” (ASTELLAS PHARMA INC., priority 1999, published 2006).
Where a name gives a salt, the structure may show the parent alone.

Assays:
[1] = test system: patients suffering from lower urinary tract symptoms; assay: Clinical test to patients suffering from lower urinary tract symptoms (twelve-week test); format: in vivo, human; conditions: total score for subjective symptom, QOL index and test on functions
Protocol: A clinical test was carried out under the following conditions using the patients suffering from lower urinary tract symptoms. Subjects: eighteen patients diagnosed as lower urinary tract symptoms, i.e. urinary disturbance without clear organic or neurological abnormality in lower urinary tract (15 males and 3 female, age: 57.2±14.2). Test drug and administering method: One capsule containing 0.2 mg of tamsulosin hydrochloride was orally administered once daily after breakfast for four weeks and, after that, the dose after 4 weeks was controlled in consideration of the following criterion, and the dose was orally administered once daily after breakfast. [table] Test period: twelve weeks (84 days) (4 weeks (28 days) for 8 males) Observed items: Evaluations and measurements were made for the following items before and after the administration. (1) Total score for subjective symptoms Total scores for the following <1>˜<7> before and after the administration were obtained in the same way as in Test Example 1. <1> Feel of residual urine, <2> Urination within two hours, <3> Break of urinary stream, <4> Urgency, <5> Force of urinary stream, <6> Straining upon urination and <7> Frequency of urination at night. (2) QOL Index “How do you think if the present urinating state continues in future as well?” (3) Test on Functions <1> maximum urinary stream rate <2> average urinary stream rate

[2] = test system: patients suffering from lower urinary tract symptoms; assay: Clinical test to patients suffering from lower urinary tract symptoms (four-week test); format: in vivo, human; conditions: total score for subjective symptom and QOL index
Protocol: A clinical test was carried out under the following conditions using the patients suffering from lower urinary tract symptoms. (cf. Chapter 1: Indexes for Evaluation of Prostatic Hypertrophy in “Guideline for Clinical Test for Urinary Disturbance” published by Iyaku Tosho Shuppan) Subjects: four patients diagnosed as lower urinary tract symptoms, i.e. urinary disturbance without clear organic or neurological abnormality in lower urinary tract (3 males and 1 female). Test drug and administering method:. One capsule containing 0.2 mg of tamsulosin hydrochloride was orally administered once daily after breakfast. Test period: four weeks (28 days) Observed items: Evaluations and measurements were made for the following items before and after the administration. (1) Total score for subjective symptoms Questioning was done to the patients for the following items and the total score was obtained. (2) QOL Index With regard to an index for quality of life (QOL), a questioning that “How do you think if the present urinary condition continues in future as well?” was done as a total diagnosis concerning the urinary disturbance and any of the following evaluations was collected.

Structure (SMILES): CCOc1ccccc1OCCN[C@H](C)Cc1ccc(OC)c(S(N)(=O)=O)c1 [tamsulosin hydrochloride, (R)(−)-5-[2-[[2-(o-ethoxyphenoxy)ethyl]amino]propyl]-2-methoxybenzene-sulfonamide]
- Overall conclusion on efficacy as therapeutic agent for lower urinary tract symptoms [1]: confirmed to be effective
- Overall conclusion on efficacy as therapeutic agent for lower urinary tract symptoms [2]: confirmed to be effective
